IC50 data for five compounds are collected here from patent US8476298B2 (Exelixis, Inc., priority 2003, dated 2013).

In assay [1] the target is T1, c-Met (baculovirus expressed human c-Met kinase domain P948-S1343) (Homo sapiens, UniProt P08581).
T1 construct: human c-Met kinase domain P948-S1343; host or cells: baculovirus expression
As to the kind of experiment: c-Met Luciferase-Coupled Chemiluminescent Kinase assay (LCCA).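 Note: kinase activity read as percent ATP left after reaction, by luciferase-luciferin chemiluminescence, with 1 µM ATP and 1 µM poly-EY substrate, 2 h at ambient temperature, 10-point dose-response.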 Type of assay: biochemical.

Assay [2] has as its target T2, Flt-3 (baculovirus expressed human Flt-3 kinase domain R571-S993) (Homo sapiens, UniProt P36888).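 Note: Luciferase-coupled chemiluminescent kinase assay, activity read as percent ATP left after a 3 h reaction at room temperature, ATP near KM, 10-point dose-response.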
T2 construct: human Flt-3 kinase domain R571-S993; host or cells: baculovirus expression
T2 sequence (P36888 571-993): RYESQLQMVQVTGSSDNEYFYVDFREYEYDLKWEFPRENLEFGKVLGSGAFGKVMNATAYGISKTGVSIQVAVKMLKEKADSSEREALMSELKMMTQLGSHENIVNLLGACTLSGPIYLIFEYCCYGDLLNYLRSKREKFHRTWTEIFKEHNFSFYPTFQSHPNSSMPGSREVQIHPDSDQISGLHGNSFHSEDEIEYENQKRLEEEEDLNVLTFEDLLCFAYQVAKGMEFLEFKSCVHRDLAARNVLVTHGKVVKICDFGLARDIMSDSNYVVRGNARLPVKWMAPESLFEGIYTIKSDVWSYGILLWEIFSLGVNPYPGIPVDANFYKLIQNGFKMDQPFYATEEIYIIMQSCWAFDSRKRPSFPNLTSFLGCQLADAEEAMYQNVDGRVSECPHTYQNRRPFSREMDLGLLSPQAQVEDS
The experiment in a line: biochemical. The note with it: read-out: flt3 IC50.

The target in assay [3] is T3, Flt-4 (baculovirus expressed human Flt-4 kinase domain D725-R1298) (Homo sapiens, UniProt P35916).
T3 construct: human Flt-4 kinase domain D725-R1298; host or cells: baculovirus expression
T3 sequence (P35916 725-1298 isoform P35916-1): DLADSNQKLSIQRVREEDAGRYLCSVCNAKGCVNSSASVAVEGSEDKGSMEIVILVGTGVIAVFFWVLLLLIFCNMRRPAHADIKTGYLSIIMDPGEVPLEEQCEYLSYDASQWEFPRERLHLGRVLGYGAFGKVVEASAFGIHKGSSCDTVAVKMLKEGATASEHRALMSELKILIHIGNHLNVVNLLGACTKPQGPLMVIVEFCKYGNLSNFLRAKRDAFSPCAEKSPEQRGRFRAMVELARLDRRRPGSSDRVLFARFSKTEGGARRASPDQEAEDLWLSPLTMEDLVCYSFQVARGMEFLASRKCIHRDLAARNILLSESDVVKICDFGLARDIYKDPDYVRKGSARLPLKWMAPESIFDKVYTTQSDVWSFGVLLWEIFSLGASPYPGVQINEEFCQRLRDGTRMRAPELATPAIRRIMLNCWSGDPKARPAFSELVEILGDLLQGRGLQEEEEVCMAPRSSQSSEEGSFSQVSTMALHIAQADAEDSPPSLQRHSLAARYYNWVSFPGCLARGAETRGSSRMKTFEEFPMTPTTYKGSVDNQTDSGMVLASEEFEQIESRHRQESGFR
As to the kind of experiment: flt-4 Alphascreen Tyrosine Kinase assay.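 Note: AlphaScreen chemiluminescence read-out of biotinylated poly(Glu,Tyr) 4:1 phosphorylation via streptavidin donor and PY100 anti-phosphotyrosine acceptor beads, ATP near KM, 1 hr kinase reaction, 10-point dose-response.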 The note with it: read-out: flt4 IC50. The class given is biochemical. Background: Alpha assays give light when donor and acceptor beads are brought close together.

Assay [4] addresses T4, KDR (baculovirus expressed human KDR kinase domain D807-V1356) (Homo sapiens, UniProt P35968).
T4 construct: human KDR kinase domain D807-V1356; host or cells: baculovirus expression
The experiment in a line: biochemical.
Procedure: (§1) Kinase activity and compound inhibition are investigated using one or more of the three assay formats described below. The ATP concentrations for each assay are selected to be close to the Michaelis-Menten constant (KM) for each individual kinase. Dose-response experiments are performed at 10 different inhibitor concentrations in a 384-well plate format.
KDR biochemical activity was assessed using a Luciferase-Coupled Chemiluminescent Kinase assay (LCCA) format. Kinase activity was measured as the percent ATP remaining following the kinase reaction. Remaining ATP was detected by luciferase-luciferin-coupled chemiluminescence. […] The mixture is incubated at ambient temperature for 4 hours after which 20 uL luciferase-luciferin mix is added and the chemiluminescent signal read using a Wallac Victor^2 reader.

The target in another assay is c-Kit kinase (Homo sapiens, UniProt P10721). As to the kind of experiment: c-Kit AlphaScreen kinase assay.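 Note: c-Kit kinase phosphorylating biotinylated poly(Glu,Tyr), ATP near its KM, 1 h reaction at ambient temperature, AlphaScreen chemiluminescence with streptavidin donor and anti-phosphotyrosine acceptor beads, 10-point inhibitor titration.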 Type of assay: biochemical.
Chain of c-Kit kinase (P10721 26-976): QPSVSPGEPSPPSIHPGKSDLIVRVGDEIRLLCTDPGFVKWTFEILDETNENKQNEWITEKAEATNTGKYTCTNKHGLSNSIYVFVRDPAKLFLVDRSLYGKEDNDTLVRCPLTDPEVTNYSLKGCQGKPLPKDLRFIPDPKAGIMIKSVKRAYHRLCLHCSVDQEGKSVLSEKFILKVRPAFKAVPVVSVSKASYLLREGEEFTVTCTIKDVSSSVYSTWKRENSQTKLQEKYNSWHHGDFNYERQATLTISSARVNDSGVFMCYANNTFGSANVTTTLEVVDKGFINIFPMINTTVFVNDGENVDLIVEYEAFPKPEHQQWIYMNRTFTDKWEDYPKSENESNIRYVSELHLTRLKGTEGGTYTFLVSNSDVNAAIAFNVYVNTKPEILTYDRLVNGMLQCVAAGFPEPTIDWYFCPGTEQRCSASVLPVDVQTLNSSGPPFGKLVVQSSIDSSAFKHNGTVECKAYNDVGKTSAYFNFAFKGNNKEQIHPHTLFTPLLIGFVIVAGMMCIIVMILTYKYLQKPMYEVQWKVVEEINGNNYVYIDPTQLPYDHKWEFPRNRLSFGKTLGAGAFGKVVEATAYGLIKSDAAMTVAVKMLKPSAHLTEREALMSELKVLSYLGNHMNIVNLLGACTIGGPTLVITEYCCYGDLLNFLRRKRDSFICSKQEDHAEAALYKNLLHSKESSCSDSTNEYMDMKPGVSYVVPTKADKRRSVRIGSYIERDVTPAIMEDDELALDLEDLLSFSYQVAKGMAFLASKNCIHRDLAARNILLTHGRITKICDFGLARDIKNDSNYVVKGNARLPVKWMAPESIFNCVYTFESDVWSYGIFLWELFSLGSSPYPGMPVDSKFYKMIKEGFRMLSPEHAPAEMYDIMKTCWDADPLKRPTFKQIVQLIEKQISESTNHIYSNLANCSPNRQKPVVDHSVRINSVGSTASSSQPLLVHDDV

T1 sequence (P08581 1011-1343 limits assumed): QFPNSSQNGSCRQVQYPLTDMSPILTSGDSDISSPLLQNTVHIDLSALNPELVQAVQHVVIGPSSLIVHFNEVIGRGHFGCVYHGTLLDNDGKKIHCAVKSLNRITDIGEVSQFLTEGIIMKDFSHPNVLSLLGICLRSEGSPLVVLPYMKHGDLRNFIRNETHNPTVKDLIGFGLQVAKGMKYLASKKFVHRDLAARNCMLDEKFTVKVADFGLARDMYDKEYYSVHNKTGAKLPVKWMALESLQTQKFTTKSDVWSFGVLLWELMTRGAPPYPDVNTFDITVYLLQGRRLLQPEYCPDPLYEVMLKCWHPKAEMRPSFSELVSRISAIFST
T4 sequence (P35968 807-1356): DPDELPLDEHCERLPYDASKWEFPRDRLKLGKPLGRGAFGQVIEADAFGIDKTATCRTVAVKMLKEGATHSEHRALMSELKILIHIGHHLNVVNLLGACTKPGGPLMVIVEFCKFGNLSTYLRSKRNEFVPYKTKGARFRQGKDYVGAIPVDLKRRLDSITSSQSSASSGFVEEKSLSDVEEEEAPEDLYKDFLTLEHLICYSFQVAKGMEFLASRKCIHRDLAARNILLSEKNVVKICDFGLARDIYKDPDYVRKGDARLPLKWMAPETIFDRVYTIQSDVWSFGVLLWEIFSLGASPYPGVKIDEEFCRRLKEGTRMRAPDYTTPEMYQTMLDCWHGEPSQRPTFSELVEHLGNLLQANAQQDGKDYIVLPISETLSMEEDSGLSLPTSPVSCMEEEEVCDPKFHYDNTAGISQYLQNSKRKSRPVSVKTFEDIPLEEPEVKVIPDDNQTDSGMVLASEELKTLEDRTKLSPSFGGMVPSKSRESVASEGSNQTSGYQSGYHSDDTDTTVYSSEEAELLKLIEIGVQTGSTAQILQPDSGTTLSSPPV
Procedure for c-Kit kinase: as §1
AlphaScreen™ (Perkin Elmer) technology is a proximity assay employing microparticles. Singlet oxygen derived from a donor bead following laser excitation results in chemiluminescence when in proximity (100 Å) to an acceptor bead due to biomolecular interactions.
c-Kit biochemical activity was assessed using AlphaScreen™ (Perkin Elmer) technology, described above. Test compounds, ATP, biotinylated poly(Glu, Tyr) and c-Kit kinase were combined in a volume of 20 μL in a 384-well white, medium binding microtiter plate (Greiner). Reaction mixtures were incubated for 1 hr at ambient temperature. […] After 16 hr incubation at ambient temperature plates were read using an AlphaQuest reader (Perkin Elmer).

What is called IC50 is the midpoint of a concentration-inhibition curve. Take `COc1cc2c(Oc3ccc(NC(=O)C4(C(=O)Nc5ccc(F)cc5)CC4)cc3F)ccnc2cc1OCC1CCN(C)CC1` [Example 334, N-{3-fluoro-4-[(6-(methyloxy)-7-{[(1-methylpiperidin-4-yl)methyl]oxy}quinolin-4-yl)oxy]phenyl}-N′-(4-fluorophenyl)cyclopropane-1,1-dicarboxamide]: the IC50 (in assay [1]; in assay [2]; in assay [3]; in assay [4]; at c-Kit kinase) was less than 0.05 µM in each case.
Take `CCN(CC)CCCOc1cc2nccc(Oc3ccc(NC(=O)C4(C(=O)Nc5ccc(F)cc5)CC4)cc3F)c2cc1OC` [Example 336, N-(4-{[7-{[3-(diethylamino)propyl]oxy}-6-(methyloxy)quinolin-4-yl]oxy}-3-fluorophenyl)-N′-(4-fluorophenyl)cyclopropane-1,1-dicarboxamide]: the half-maximal inhibitory concentration (IC50) (in assay [1]; in assay [2]; in assay [3]; in assay [4]; on c-Kit kinase) was less than 0.05 µM throughout.
In the case of `COc1cc2nccc(Oc3cc(Cl)c(NC(=O)C4(C(=O)Nc5ccc(F)cc5)CC4)cc3F)c2cc1OC` [Example 337, N-(4-{[6,7-bis(methyloxy)quinolin-4-yl]oxy}-2-chloro-5-fluorophenyl)-N′-(4-fluorophenyl)cyclopropane-1,1-dicarboxamide], the IC50 in assay [1] was less than 0.05 µM; in assay [2], 0.5 to 5 µM; in assay [3], 0.5 to 5 µM; in assay [4], 0.05 to 0.5 µM; against c-Kit kinase, 0.05 to 0.5 µM.
With `COc1cc2c(Oc3ccc(NC(=O)[C@@]4(C(=O)Nc5ccc(F)cc5)C[C@H]4C)cc3F)ccnc2cc1OCCCN1CCOCC1` [Example 342, (1S,2R)-N-[3-fluoro-4-({6-(methyloxy)-7-[(3-morpholin-4-ylpropyl)oxy]quinolin-4-yl}oxy)phenyl]-N′-(4-fluorophenyl)-2-methylcyclopropane-1,1-dicarboxamide], the IC50 in assay [1] is less than 0.05 µM; in assay [2], less than 0.05 µM; in assay [3] it was less than 0.05 µM; in assay [4], less than 0.05 µM; against c-Kit kinase it was 0.05 to 0.5 µM.
Consider `COc1cc2c(Oc3ccc(NC(=O)[C@]4(C(=O)Nc5ccc(F)cc5)C[C@H]4C)cc3F)ccnc2cc1OCCCN1CCOCC1` [Example 343, (1R,2R)-N-[3-fluoro-4-({6-(methyloxy)-7-[(3-morpholin-4-ylpropyl)oxy]quinolin-4-yl}oxy)phenyl]-N′-(4-fluorophenyl)-2-methylcyclopropane-1,1-dicarboxamide], for which the half-inhibitory concentration (IC50) (in assay [1]; in assay [2]; in assay [3]; in assay [4]; against c-Kit kinase) was less than 0.05 µM in each case.
